Assay results reported in patent US11471460B2, “Autophagy modulators for use in treating cancer” (The United States of America,as represented by the …, priority 2017, dated 2022).
“Also recorded” adds a separate entry of the source.

System: melanoma A375 cells
Assay: Tumor formation by pretreated A375 cells in nude mice
Format: in vivo
Text: Viability was quantified by trypan blue dye exclusion method. The images confirmed the presence of cytoplasmic vacuolization occurred only in the compound 1 treated cells. […] The left flank received cells pretreated with vehicle and the right flank received cells pretreated with compound 1. At 27 days later, mice were photographed, and tumors excised. […] Error bars indicate the SEM for 5 tumors.
To determine whether or not compound 1 could inhibit progression of a tumor that arose from autophagy-dependent cancer cells, melanoma A375 cells were pretreated with either vehicle or compound 1 and then assayed for their ability to produce a tumor. Pretreatment consisted of culturing A375 cells for 8 hours with 10 μM compound 1. The cells were then recovered by trypsinization and their viability confirmed by trypan blue exclusion. […] The cells were then inoculated subcutaneously into the flanks of immuno-compromised mice.

- Ill effects on mice (mouse weight): no ill effects on mice
SMILES: C1=Nc2ccccc2/C1=C/NNc1nc(Nc2ccccc2)nc(N2CCOCC2)n1 [compound 1]
- Tumor xenograft formation by pretreated cells (A375 cells pretreated 8 hours with 10 μM, subcutaneous): decidedly less efficient; also recorded: inhibited their ability to form a tumor
